Measured values: patent US10130629B2, “Pharmaceutical combinations” (Novartis AG, priority 2015, dated 2018)

What was measured:
[1] = test system: HuH-7 hepatocellular carcinoma cells; experiment: Methylene blue staining proliferation assay (MBS); format: cell-based; settings: Homo sapiens, 72 hours after compound addition, read-out: HUH7 proliferation (nM) MBS
Method: Methylene blue staining proliferation assay (MBS): The effect of the compound on cell proliferation is assessed using HuH-7 hepatocellular carcinoma cells obtained from the Japanese Collection of Research Bioresources Cell Bank (Cat# JCRB0403) and cultured in the vendor-recommended medium (DMEM high glucose (Amimed Cat#1-26F01-I), 10% foetal calf serum (Invitrogen Cat#16140-071), 1 mM sodium pyruvate (Amimed Cat#5-60F00-H), 1× Penicillin/Streptomycin (Amimed Cat#4-01F00-H)) at 37° C. in a humidified 5% CO2 incubator. Specifically, 5000 cells/well were seeded in 96-well tissue culture plates (TPP Cat#92696) in a total media volume of 100 μl/well and increasing compound dilutions or DMSO were added 24 hours thereafter in triplicates. 72 hours after compound addition, cells were fixed by adding 25 μL/well of 20% glutaraldehyde (Sigma Aldrich Cat# G400-4) and incubated for 10 minutes at room temperature. Cells were washed three times with H2O, 200 μL/well and stained with 100 μL/well 0.05% methylene blue (ABCR GmbH Cat# AB117904) for 10 minutes at room temperature. Cells were washed 3 times with H2O, 200 μL/well and then lysed by adding 200 μL/well of 3% HCl (Fluka Cat#84422) for 30 minutes at room temperature with shaking. Optical density was measured at A650 nm. […]

[2] = test system: HuH-7 hepatocellular carcinoma cells; experiment: CellTiter Glo (CTG) proliferation assay; format: cell-based; settings: Homo sapiens, Huh-7, 72 h; 3 days incubation; half-maximal growth inhibition; read-out: HUH7 proliferation (nM) CTG
Method: CellTiter Glo (CTG) assay: The functional effect of compounds on cell proliferation is assessed using HuH-7 hepatocellular carcinoma cells obtained from the Japanese Collection of Research Bioresources Cell Bank (Cat# JCRB0403) and cultured in the vendor-recommended medium (DMEM high glucose (Amimed Cat#1-26F01-I), 10% foetal calf serum (Invitrogen Cat#16140-071), 1 mM sodium pyruvate (Amimed Cat#5-60F00-H), 1× Penicillin/Streptomycin (Amimed Cat#4-01F00-H)) at 37° C. in a humidified 5% CO2 incubator. Compound-mediated suppression of cell proliferation/viability is assessed by quantification of cellular ATP levels using the CellTiter-Glo (CTG) reagent (Promega, Cat# G7573). […] Dose-response effects are assessed by 3-fold serial dilutions of the test compound, starting at 10 μM. Following incubation of the cells for 3 days at 37° C. and 5% CO2, the effect of inhibitors on cell viability is quantified following addition of 50 μl CTG and luminescence measurement (integration time: 500 ms) as per vendor manual, using a correspondingly equipped multi-mode plate reader (M200Pro, TECAN, Switzerland). For data analysis, the assay background value determined in wells containing medium, but no cells, is subtracted from all data points. […] Compound concentrations leading to half-maximal growth inhibition ([…]) are determined using standard four parameter curve fitting (XLfit 5.2., IDBS, UK).

COCCNc1cc(NC(=O)N2CCCc3cc(CN4CCN(C)CC4=O)c(C=O)nc32)ncc1C#N [Example 83, N-(5-cyano-4-((2-methoxyethyl)amino)pyridin-2-yl)-7-formyl-6-((4-methyl-2-oxopiperazin-1-yl)methyl)-3,4-dihydro-1,8-naphthyridine-1(2H)-carboxamide]
IC50 [1]: 12 nM | IC50 [2]: 60.9 nM
